The test system of series [1] is T222. As to the kind of experiment: Concentration for 50% growth inhibition relative to untreated control in the human lung epidermoid carcinoma (T222) cell line. The series is classed as functional, cell-based.
Series [2] has as its system Mus musculus. The series is described as follows: Percent inhibition against [3H]leucine uptake at a dose of 0.05 mg/Kg in mouse bearing a T222 tumor burden. In kind it is functional.
Series [3] deals with Mus musculus. As to the kind of experiment: Percent inhibition against [3H]-Leucine uptake at a dose of 0.1 mg/Kg in a mouse bearing a T222 tumor burden. The series is classed as functional.
Series [4] concerns Mus musculus. The series is described as follows: Percent inhibition against [3H]leucine uptake at a dose of 0.2 mg/Kg in a mouse bearing a T222 tumor burden. The series is classed as functional.
Series [5] concerns Mus musculus. The series is described as follows: Acute toxicity was measured as ratio of number of mice that died to the 5 mice in test group on a dose of 0.1 mg/Kg. The series is classed as organism-based. The following applies: in vivo.
Series [6] relates to Mus musculus. As to the kind of experiment: Acute toxicity was measured as ratio of number of mice that died to the 5 mice in test group on a dose of 0.2 mg/Kg. The series is classed as organism-based. The following applies: in vivo.
In series [7] the test system is Mus musculus. As to the kind of experiment: Acute toxicity was measured as ratio of number of mice that died to the 5 mice in test group on a dose of 0.4 mg/Kg. The following applies: in vivo. The series is classed as organism-based.
The subject of series [8] is Mus musculus. The series is described as follows: Acute toxicity was measured as ratio of number of mice that died to the 5 mice in the test group on a dose of 0.05 mg/Kg. The series is classed as organism-based. The note with it: in vivo.
Series [9] relates to Nucleic Acid. As to the kind of experiment: Relative concentration of compound for alkylation of w794 DNA detected at incubation condition of 4 degrees C for 24 hr; Range is 1.0-0.2. In kind it is functional.
In series [10] the test system is Nucleic Acid. The series is described as follows: Relative concentration of compound for alkylation of w794 DNA is detected at incubation condition of 4 degrees C for 24 hr; Range is 0.01-0.006. In kind it is functional.
For series [11], the system named is T222. The series is described as follows: Concentration for 50% growth inhibition relative to untreated control in the human lung epidermoid carcinoma (T222) cell line; Not active. In kind it is functional, cell-based.

≈ marks a conversion by molar mass, not a printed value.

The text below walks through data of ChEMBL document CHEMBL1127792, “Total synthesis and biological properties of novel antineoplastic (chloromethyl)furanoindolines: an asymmetric hydroboration mediated synthesis of the alkylation subunits” (J Med Chem, 1994).

A word on the IC50: it is the midpoint of a concentration-inhibition curve. The low end stands for higher potency, the high end for lower potency. The inhibition in vivo is the share of the control response that was lost under treatment. The low end stands for a weak effect, the high end for a strong effect.

As for `Cc1coc2c(O)cc3c(c12)[C@H](CCl)CN3C(=O)c1cc2cc(NC(=O)c3cc4ccccc4s3)ccc2[nH]1`, half-maximal inhibition in the series on T222 [1] (IC50) was put at 0.2 ng/mL (≈ 0.36 nM).
For `Cc1coc2c(O)cc3c(c12)C(CCl)CN3C(=O)c1cc2cc(NC(=O)c3cc4ccccc4[nH]3)ccc2[nH]1` (single isomer, unassigned), testing at 0.05 mg/kg in the series on Mus musculus [2] gave an inhibition in vivo of 68%. In the series on Mus musculus [3], the inhibition in vivo at 0.1 mg/kg is 73%. Also, the inhibition in vivo at 0.2 mg/kg in the series on Mus musculus [4] is 85%. Further, the Toxicity with Mus musculus [5] worked out at 0; in the series on Mus musculus [6], 1; in the series on Mus musculus [7], 5; with Mus musculus [8] it was 0. This molecule had an Efficiency in the series on Nucleic Acid [9] of 0.2.
The molecule `Cc1coc2c(O)cc3c(c12)[C@@H](CCl)CN3C(=O)c1cc2cc(NC(=O)c3cc4ccccc4[nH]3)ccc2[nH]1` gave an Efficiency in the series on Nucleic Acid [10] of 0.006.
Regarding `Cc1coc2c(O)cc3c(c12)C(C)(C)CN3C(=O)c1cc2cc(NC(=O)c3cc4ccccc4[nH]3)ccc2[nH]1`, the IC50 result with T222 [11] is reported as “Not Active”.
In the series on T222 [1], `CC[C@]1(O)C[C@@H]2CN(CCc3c([nH]c4ccccc34)[C@@](C(=O)OC)(c3cc4c(cc3OC)N(C)[C@H]3[C@@](O)(C(=O)NN)[C@H](O)[C@]5(CC)C=CCN6CC[C@]43[C@@H]65)C2)C1` [DESACETYLVINBLASTINEHYDRAZIDE] returned an IC50 of 3 ng/mL (≈ 3.9 nM).
Still for that read-out and setting: the same measure for `Cc1coc2c(O)cc3c(c12)[C@H](CCl)CN3C(=O)c1cc2cc(NC(=O)c3cc4ccccc4s3)ccc2s1`: 0.2 ng/mL (≈ 0.349 nM).
